Experimental data taken from US12479849B2, “EGFR inhibitors for the treatment of cancer” (Hoffmann-La Roche Inc., priority 2019, dated 2025).

What follows are compounds tested against T1, EGFR TMLRCS (Homo sapiens, UniProt P00533, C797S/L858R/T790M) (assay: HTRF Phospho EGFR TMLRCS Assay (Cellular)). Details: BaF3-TMLRCS cell line, 4 hours incubation, Phospho-EGFR HTRF readout.
T1 construct: host or cells: BaF3-TMLRCS (Ba/F3 cells, kept under puromycin selection)
Type: cell-based
Procedure, shortened: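 BaF3 cells expressing EGFR L858R/T790M/C797S, 20000/well, treated with compound in dose response for 4 h at 37 °C, 5% CO2. After lysis, phospho-EGFR detected by HTRF with cryptate and d2 antibodies over 4 h at room temperature. Signal taken as 665/616 nm ratio ×10000, normalized.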

T1 sequence (P00533 25-1210 T790M/C797S/L858R): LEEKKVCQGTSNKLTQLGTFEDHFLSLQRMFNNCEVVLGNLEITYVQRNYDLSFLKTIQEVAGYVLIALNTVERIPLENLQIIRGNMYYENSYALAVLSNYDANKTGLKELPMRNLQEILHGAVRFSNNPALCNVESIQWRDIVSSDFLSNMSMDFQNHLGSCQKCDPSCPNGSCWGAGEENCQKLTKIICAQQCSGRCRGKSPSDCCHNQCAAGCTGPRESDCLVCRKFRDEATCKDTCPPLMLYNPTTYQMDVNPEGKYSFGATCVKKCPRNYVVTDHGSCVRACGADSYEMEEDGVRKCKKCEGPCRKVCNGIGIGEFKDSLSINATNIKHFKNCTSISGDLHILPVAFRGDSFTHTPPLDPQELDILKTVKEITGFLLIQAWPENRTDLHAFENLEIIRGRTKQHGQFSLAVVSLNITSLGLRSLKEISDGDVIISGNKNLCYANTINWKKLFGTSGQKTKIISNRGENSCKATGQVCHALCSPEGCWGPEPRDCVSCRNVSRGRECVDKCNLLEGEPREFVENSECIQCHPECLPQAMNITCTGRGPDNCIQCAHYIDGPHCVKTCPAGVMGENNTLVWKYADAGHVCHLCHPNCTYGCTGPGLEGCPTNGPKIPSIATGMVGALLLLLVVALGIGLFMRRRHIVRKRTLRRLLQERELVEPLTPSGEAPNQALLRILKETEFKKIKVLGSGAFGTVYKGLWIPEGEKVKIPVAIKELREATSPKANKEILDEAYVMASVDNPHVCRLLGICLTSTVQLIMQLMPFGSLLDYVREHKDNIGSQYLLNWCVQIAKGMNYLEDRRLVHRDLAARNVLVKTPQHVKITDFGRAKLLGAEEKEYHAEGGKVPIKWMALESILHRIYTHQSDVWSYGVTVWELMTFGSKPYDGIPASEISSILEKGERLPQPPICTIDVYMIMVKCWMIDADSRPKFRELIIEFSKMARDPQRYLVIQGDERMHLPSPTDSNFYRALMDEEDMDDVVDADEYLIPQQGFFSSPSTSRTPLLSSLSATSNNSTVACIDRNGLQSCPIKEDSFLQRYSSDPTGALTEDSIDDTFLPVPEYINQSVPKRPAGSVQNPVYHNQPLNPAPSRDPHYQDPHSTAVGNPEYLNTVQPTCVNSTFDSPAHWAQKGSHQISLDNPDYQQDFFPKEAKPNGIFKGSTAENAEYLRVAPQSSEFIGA

Compared with `O=C(Nc1nccs1)C(c1ncn2c1C[C@@H](F)C2)n1cc2c(Cl)cc(-c3ccc(C4CCN(CCF)CC4)cc3)c(Cl)c2n1` (stereo partly drawn) [Example 33, 2-(4,7-Dichloro-6-(4-(1-(2-fluoroethyl)piperidin-4-yl)phenyl)-2H-indazol-2-yl)-2-((R)-6-fluoro-6,7-dihydro-5H-pyrrolo[1,2-c]imidazol-1-yl)-N-(thiazol-2-yl)acetamide], `COCCN1CCC(c2ccc(-c3cc(C)c4cn(C(C(=O)Nc5nccs5)c5ncn6c5C[C@@H](F)C6)nc4c3Cl)cc2)CC1` (stereo partly drawn) [Example 130, 2-(7-Chloro-6-(4-(1-(2-methoxyethyl)piperidin-4-yl)phenyl)-4-methyl-2H-indazol-2-yl)-2-((R)-6-fluoro-6,7-dihydro-5H-pyrrolo[1,2-c]imidazol-1-yl)-N-(thiazol-2-yl)acetamide] is 1.7-fold higher in IC50: 7 nM for the first, 12 nM for the second.

`O=C(Nc1nccs1)C(c1ncn2c1C[C@@H](F)C2)n1cc2c(Cl)cc(-c3ccc(CN4C[C@H]5COC[C@H]5C4)cc3)c(Cl)c2n1` (mixture of isomers) [Example 99, rac-2-(4,7-Dichloro-6-(4-0(3aR,6aS)-tetrahydro-1H-furo[3,4-c]pyrrol-5(3H)-yl)methyl)phenyl)-2H-indazol-2-yl)-2-((R)-6-fluoro-6,7-dihydro-5H-pyrrolo[1,2-c]imidazol-1-yl)-N-(thiazol-2-yl)acetamide] and `O=C(Nc1nccs1)C(c1ncn2c1C[C@@H](F)C2)n1cc2c(Cl)cc(-c3ccc(CN4CCC(O)CC4)cc3)c(Cl)c2n1` (mixture of isomers) [Example 58, rac-2-(4,7-Dichloro-6-(4-((4-hydroxypiperidin-1-yl)methyl)phenyl)-2H-indazol-2-yl)-2-((R)-6-fluoro-6,7-dihydro-5H-pyrrolo[1,2-c]imidazol-1-yl)-N-(thiazol-2-yl)acetamide] are within 1.5-fold of each other in IC50: 6 nM for the first, 5 nM for the second.

`Cc1c(-c2ccc(N3CCOCC3)cc2)cc(Cl)c2cn(C(C(=O)Nc3nccs3)c3ncn4c3C[C@@H](F)C4)nc12` (stereo partly drawn) [Example 105, 2-(4-Chloro-7-methyl-6-(4-morpholinophenyl)-2H-indazol-2-yl)-2-((R)-6-fluoro-6,7-dihydro-5H-pyrrolo[1,2-c]imidazol-1-yl)-N-(thiazol-2-yl)acetamide] and `O=C(Nc1nccs1)C(c1ncn2c1C[C@@H](F)C2)n1cc2c(Cl)cc(-c3ccc(N4CCN5C[C@H](O)C[C@H]5C4)cc3)c(Cl)c2n1` (stereo partly drawn) [Example 93, 2-(4,7-Dichloro-6-(4-((7R,8aS)-7-hydroxyhexahydropyrrolo[1,2-a]pyrazin-2(1H)-yl)phenyl)-2H-indazol-2-yl)-2-((R)-6-fluoro-6,7-dihydro-5H-pyrrolo[1,2-c]imidazol-1-yl)-N-(thiazol-2-yl)acetamide] are within 1.5-fold of each other in IC50: 8 nM for the first, 6 nM for the second.

First: O=C(Nc1nccs1)C(c1ncn2c1C[C@@H](F)C2)n1cc2c(Cl)cc(-c3ccc(C4CC(CN5CCC(CO)CC5)C4)cc3)c(Cl)c2n1 (mixture of isomers) [Example 75, rac-2-(4,7-Dichloro-6-(4-(34(4-(hydroxymethyl)piperidin-1-yl)methyl)cyclobutyl)phenyl)-2H-indazol-2-yl)-2-((R)-6-fluoro-6,7-dihydro-5H-pyrrolo[1,2-c]imidazol-1-yl)-N-(thiazol-2-yl)acetamide]
Second: O=C(Nc1nccs1)C(c1ncn2c1C[C@@H](F)C2)n1cc2c(Cl)cc(-c3ccc(CN4CCC(CCO)CC4)cc3)c(Cl)c2n1 (stereo partly drawn) [Example 78, 2-(4,7-Dichloro-6-(4-((4-(2-hydroxyethyl)piperidin-1-yl)methyl)phenyl)-2H-indazol-2-yl)-2-((R)-6-fluoro-6,7-dihydro-5H-pyrrolo[1,2-c]imidazol-1-yl)-N-(thiazol-2-yl)acetamide]
The IC50 of the first is 2.7-fold higher: 8 nM for the first, 3 nM for the second. The second is the more potent here.

`CC(CCO)N1CCC(Oc2ccc(-c3cc(Cl)c4cn(C(C(=O)Nc5nccs5)c5ncn6c5C[C@@H](F)C6)nc4c3Cl)cc2)CC1` (mixture of isomers) [Example 86, 2-[4,7-Dichloro-6-[4-[[1-(3-hydroxy-1-methyl-propyl)-4-piperidyl]oxy]phenyl]indazol-2-yl]-2-[rac-(6R)-6-fluoro-6,7-dihydro-5H-pyrrolo[1,2-c]imidazol-1-yl]-N-thiazol-2-yl-acetamide] and `COC1CCN(Cc2ccc(-c3cc(Cl)c4cn(C(C(=O)Nc5nccs5)c5ncn6c5C[C@@H](F)C6)nc4c3Cl)cc2)C1` (mixture of isomers) [Example 98, rac-2-(4,7-Dichloro-6-(4-((3-methoxypyrrolidin-1-yl)methyl)phenyl)-2H-indazol-2-yl)-2-((R)-6-fluoro-6,7-dihydro-5H-pyrrolo[1,2-c]imidazol-1-yl)-N-(thiazol-2-yl)acetamide] are the same in IC50: 6 nM for the first, 6 nM for the second.

`CCN1CCC(c2ccc(-c3cc(Cl)c4cn(C(C(=O)Nc5nccs5)c5ncn6c5C[C@@H](F)C6)nc4c3)cc2)CC1` (mixture of isomers) [Example 117, rac-2-(4-Chloro-6-(4-(1-ethylpiperidin-4-yl)phenyl)-2H-indazol-2-yl)-2-((R)-6-fluoro-6,7-dihydro-5H-pyrrolo[1,2-c]imidazol-1-yl)-N-(thiazol-2-yl)acetamide] and `CCN1CC[C@@H](c2ccc(-c3cc(C)c4cn(C(C(=O)Nc5nccs5)c5ncn6c5C[C@@H](F)C6)nc4c3Cl)cc2)[C@H](F)C1` (single isomer, unassigned) [Example 129] are within 1.5-fold of each other in IC50: 9 nM for the first, 10 nM for the second.

First: CCN1CC[C@@H](c2ccc(-c3cc(C)c4cn(C(C(=O)Nc5nccs5)c5ncn6c5C[C@@H](F)C6)nc4c3C)cc2)[C@H](F)C1 (single isomer, unassigned) [Example 119]
Second: O=C(Nc1nccs1)C(c1ncn2c1C[C@@H](F)C2)n1cc2c(Cl)cc(-c3ccc(CCCN4CCC(O)CC4)cc3)c(Cl)c2n1 (mixture of isomers) [Example 57, rac-2-(4,7-Dichloro-6-(4-(3-(4-hydroxypiperidin-1-yl)propyl)phenyl)-2H-indazol-2-yl)-2-((R)-6-fluoro-6,7-dihydro-5H-pyrrolo[1,2-c]imidazol-1-yl)-N-(thiazol-2-yl)acetamide]
The IC50 of the first is 2-fold higher: 14 nM for the first, 7 nM for the second.

`CC(O)C1CN(CCc2ccc(-c3cc(Cl)c4cn(C(C(=O)Nc5nccs5)c5ncn6c5C[C@@H](F)C6)nc4c3Cl)cc2)C1` (mixture of isomers) [Example 100, rac-2-(4,7-Dichloro-6-(4-(2-(3-(1-hydroxyethyl)azetidin-1-yl)ethyl)phenyl)-2H-indazol-2-yl)-2-((R)-6-fluoro-6,7-dihydro-5H-pyrrolo[1,2-c]imidazol-1-yl)-N-(thiazol-2-yl)acetamide] gave an IC50 of 12 nM.
